Test results from ChEMBL document CHEMBL1201861, “Genomics of Drug Sensitity in Cancer screening data, Wellcome Trust Sanger Institute”.

Key:
Assay in all cases: cells
COR-L23 = assay type: functional, cell-based; details: Homo sapiens;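 further: cell viability assay measuring how strongly compounds suppress growth of COR-L23 cells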
Description: SANGER: Inhibition of human COR-L23 cell growth in a cell viability assay.

CaR-1 = assay type: functional, cell-based; details: Homo sapiens;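 further: growth inhibition of human CaR-1 cancer cells, read out with a cell viability assay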
Description: SANGER: Inhibition of human CaR-1 cell growth in a cell viability assay.

Daoy = assay type: functional, cell-based; details: Homo sapiens;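 further: daoy cell growth inhibition, read out as cell viability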
Description: SANGER: Inhibition of human Daoy cell growth in a cell viability assay.

EFO-27 = assay type: functional, cell-based; details: Homo sapiens;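 further: growth inhibition of EFO-27 cells, read out with a cell viability assay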
Description: SANGER: Inhibition of human EFO-27 cell growth in a cell viability assay.

FaDu = assay type: functional, cell-based; details: Homo sapiens;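 further: cell viability readout of growth inhibition in FaDu cells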
Description: SANGER: Inhibition of human FADU cell growth in a cell viability assay.

HCC1599 = assay type: functional, cell-based, Homo sapiens; details: Homo sapiens, HCC1599;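 further: growth inhibition of HCC1599 cells, read out in a cell viability assay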
Description: SANGER: Inhibition of human HCC1599 cell growth in a cell viability assay.

HCC1806 = assay type: functional, cell-based; details: Homo sapiens;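 further: growth inhibition of the cancer cell line, determined with a cell viability assay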
Description: SANGER: Inhibition of human HCC1806 cell growth in a cell viability assay.

HCT-15 = assay type: functional, cell-based; details: Homo sapiens;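 further: cell viability readout, IC50 reflecting suppression of HCT-15 cell growth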
Description: SANGER: Inhibition of human HCT-15 cell growth in a cell viability assay.

Kasumi 1 = assay type: functional, cell-based, Homo sapiens; details: Homo sapiens, Kasumi 1;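 further: growth inhibition of human Kasumi-1 cells, read out by a cell viability assay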
Description: SANGER: Inhibition of human KASUMI-1 cell growth in a cell viability assay.

KYSE-140 = assay type: functional, cell-based; details: Homo sapiens;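 further: cell viability assay measuring growth inhibition in human KYSE-140 cells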
Description: SANGER: Inhibition of human KYSE-140 cell growth in a cell viability assay.

KYSE-180 = assay type: functional, cell-based; details: Homo sapiens;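 further: growth inhibition of KYSE-180 cells, read out with a cell viability assay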
Description: SANGER: Inhibition of human KYSE-180 cell growth in a cell viability assay.

KYSE-270 = assay type: functional, cell-based; details: Homo sapiens;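 further: cell growth inhibition measured with a viability assay in the human KYSE-270 line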
Description: SANGER: Inhibition of human KYSE-270 cell growth in a cell viability assay.

LB373-MEL-D = assay type: functional, cell-based, Homo sapiens; details: Homo sapiens, LB373-MEL-D;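 further: growth inhibition of the cell line, read out in a cell viability assay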
Description: SANGER: Inhibition of human LB373-MEL-D cell growth in a cell viability assay.

LOUCY = assay type: functional, cell-based, Homo sapiens; details: Homo sapiens, LOUCY;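 further: growth inhibition of human LOUCY cells, read out with a cell viability assay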
Description: SANGER: Inhibition of human LOUCY cell growth in a cell viability assay.

LP-1 = assay type: functional, cell-based, Homo sapiens; details: Homo sapiens, LP-1;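 further: growth inhibition of human LP-1 cells, with the read-out taken from a cell viability assay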
Description: SANGER: Inhibition of human LP-1 cell growth in a cell viability assay.

LU-165 = assay type: functional, cell-based, Homo sapiens; details: Homo sapiens, LU-165
Description: SANGER: Inhibition of human LU-165 cell growth in a cell viability assay.

MC-CAR = assay type: functional, cell-based, Homo sapiens; details: Homo sapiens, MC-CAR;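 further: growth inhibition of the human MC-CAR cell line, read out by a cell viability assay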
Description: SANGER: Inhibition of human MC-CAR cell growth in a cell viability assay.

MDA-MB-231 = assay type: functional, cell-based; details: Homo sapiens
Description: SANGER: Inhibition of human MDA-MB-231 cell growth in a cell viability assay.

MDA-MB-453 = assay type: functional, cell-based; details: Homo sapiens
Description: SANGER: Inhibition of human MDA-MB-453 cell growth in a cell viability assay.

MKN-28 = assay type: functional, cell-based; details: Homo sapiens;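 further: cell viability assay read-out, IC50 reflects suppression of growth of human MKN-28 cells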
Description: SANGER: Inhibition of human MKN28 cell growth in a cell viability assay.

NALM-6 = assay type: functional, cell-based, Homo sapiens; details: Homo sapiens, NALM-6;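 further: growth inhibition of NALM-6 cells, read out with a cell viability assay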
Description: SANGER: Inhibition of human NALM-6 cell growth in a cell viability assay.

NCI-H1522 = assay type: functional, cell-based, Homo sapiens; details: Homo sapiens, NCI-H1522;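 further: growth inhibition of NCI-H1522 cells, read out with a cell viability assay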
Description: SANGER: Inhibition of human NCI-H1522 cell growth in a cell viability assay.

NCI-H1563 = assay type: functional, cell-based; details: Homo sapiens;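 further: growth inhibition of human NCI-H1563 cells, read out with a cell viability assay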
Description: SANGER: Inhibition of human NCI-H1563 cell growth in a cell viability assay.

NCI-H1703 = assay type: functional, cell-based; details: Homo sapiens;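 further: growth inhibition of NCI-H1703 cells, read out via a cell viability assay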
Description: SANGER: Inhibition of human NCI-H1703 cell growth in a cell viability assay.

NCI-H187 = assay type: functional, cell-based, Homo sapiens; details: Homo sapiens, NCI-H187;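 further: growth inhibition of NCI-H187 cells, read out as cell viability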
Description: SANGER: Inhibition of human NCI-H187 cell growth in a cell viability assay.

NCI-H2052 = assay type: functional, cell-based; details: Homo sapiens;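 further: growth inhibition of NCI-H2052 cells, read out with a cell viability assay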
Description: SANGER: Inhibition of human NCI-H2052 cell growth in a cell viability assay.

NCI-H2342 = assay type: functional, cell-based; details: Homo sapiens;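 further: growth inhibition of the cancer cell line, determined with a cell viability assay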
Description: SANGER: Inhibition of human NCI-H2342 cell growth in a cell viability assay.

NCI-H292 = assay type: functional, cell-based; details: Homo sapiens;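 further: growth inhibition of NCI-H292 cells, read out with a cell viability assay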
Description: SANGER: Inhibition of human NCI-H292 cell growth in a cell viability assay.

NCI-H441 = assay type: functional, cell-based; details: Homo sapiens;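 further: growth inhibition of NCI-H441 cells, read out with a cell viability assay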
Description: SANGER: Inhibition of human NCI-H441 cell growth in a cell viability assay.

NCI-H520 = assay type: functional, cell-based; details: Homo sapiens;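 further: growth inhibition of NCI-H520 cells, measured by a cell viability assay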
Description: SANGER: Inhibition of human NCI-H520 cell growth in a cell viability assay.

NCI-H522 = assay type: functional, cell-based; details: Homo sapiens;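 further: cell viability assay measuring growth inhibition of human NCI-H522 cells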
Description: SANGER: Inhibition of human NCI-H522 cell growth in a cell viability assay.

OE33 = assay type: functional, cell-based; details: Homo sapiens;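 further: growth inhibition of human OE33 cells, measured by a cell viability assay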
Description: SANGER: Inhibition of human OE33 cell growth in a cell viability assay.

OVCAR-5 = assay type: functional, cell-based; details: Homo sapiens;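 further: growth inhibition of human OVCAR-5 cells, read out with a cell viability assay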
Description: SANGER: Inhibition of human OVCAR-5 cell growth in a cell viability assay.

PC-14 = assay type: functional, cell-based; details: Homo sapiens;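 further: cell viability assay measuring inhibition of PC-14 cell growth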
Description: SANGER: Inhibition of human PC-14 cell growth in a cell viability assay.

PC-3 = assay type: functional, cell-based; details: Homo sapiens;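 further: cell viability assay measuring growth inhibition of PC-3 cells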
Description: SANGER: Inhibition of human PC-3 cell growth in a cell viability assay.

PFSK-1 = assay type: functional, cell-based; details: Homo sapiens;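 further: cell viability assay measuring how strongly compounds suppress growth of human PFSK-1 cells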
Description: SANGER: Inhibition of human PFSK-1 cell growth in a cell viability assay.

RD = assay type: functional, cell-based; details: Homo sapiens
Description: SANGER: Inhibition of human RD cell growth in a cell viability assay.

RERF-LC-MS = assay type: functional, cell-based; details: Homo sapiens;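 further: growth inhibition of human RERF-LC-MS cells, read out by a cell viability assay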
Description: SANGER: Inhibition of human RERF-LC-MS cell growth in a cell viability assay.

RPMI-6666 = assay type: functional, cell-based, Homo sapiens; details: Homo sapiens, RPMI-6666
Description: SANGER: Inhibition of human RPMI-6666 cell growth in a cell viability assay.

SCC-4 = assay type: functional, cell-based; details: Homo sapiens;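 further: growth inhibition of human SCC-4 cells, read out as cell viability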
Description: SANGER: Inhibition of human SCC-4 cell growth in a cell viability assay.

SK-HEP1 = assay type: functional, cell-based, SK-HEP-1; details: Homo sapiens;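 further: cell viability readout used to quantify reduction in proliferation of human SK-HEP-1 cells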
Description: SANGER: Inhibition of human SK-HEP-1 cell growth in a cell viability assay.

SNU-387 = assay type: functional, cell-based; details: Homo sapiens
Description: SANGER: Inhibition of human SNU-387 cell growth in a cell viability assay.

SUP-T1 = assay type: functional, cell-based, Homo sapiens; details: Homo sapiens, SUP-T1;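 further: growth inhibition of human SUP-T1 cells, read out as cell viability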
Description: SANGER: Inhibition of human SUP-T1 cell growth in a cell viability assay.

SW1463 = assay type: functional, cell-based; details: Homo sapiens;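 further: growth inhibition of SW1463 cells, determined with a cell viability assay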
Description: SANGER: Inhibition of human SW1463 cell growth in a cell viability assay.

SW948 = assay type: functional, cell-based; details: Homo sapiens;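 further: growth inhibition of SW948 cells, read out with a cell viability assay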
Description: SANGER: Inhibition of human SW948 cell growth in a cell viability assay.

23132-87 = assay type: functional, cell-based; details: Homo sapiens
Description: SANGER: Inhibition of human 23132-87 cell growth in a cell viability assay.

AN3-CA = assay type: functional, cell-based; details: Homo sapiens;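 further: growth inhibition of human AN3-CA cells measured by a cell viability assay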
Description: SANGER: Inhibition of human AN3-CA cell growth in a cell viability assay.

AU565 = assay type: functional, cell-based; details: Homo sapiens;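 further: cell viability assay measuring growth inhibition of human AU565 cells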
Description: SANGER: Inhibition of human AU565 cell growth in a cell viability assay.

BC-3 = assay type: functional, cell-based, Homo sapiens; details: Homo sapiens, BC-3;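 further: cell viability assay measuring growth inhibition of human BC-3 cells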
Description: SANGER: Inhibition of human BC-3 cell growth in a cell viability assay.

BL-41 = assay type: functional, cell-based; details: Homo sapiens;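 further: growth inhibition of human BL-41 cells, read out with a cell viability assay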
Description: SANGER: Inhibition of human BL-41 cell growth in a cell viability assay.

C3A = assay type: functional, cell-based; details: Homo sapiens;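 further: growth inhibition of C3A human cells, quantified with a cell viability readout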
Description: SANGER: Inhibition of human C3A cell growth in a cell viability assay.

CA46 = assay type: functional, cell-based, Homo sapiens; details: Homo sapiens, CA46;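 further: growth inhibition of human CA46 cells, read out by a cell viability assay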
Description: SANGER: Inhibition of human CA46 cell growth in a cell viability assay.

CAL-54 = assay type: functional, cell-based; details: Homo sapiens;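 further: growth inhibition of CAL-54 cells, read out by a viability measurement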
Description: SANGER: Inhibition of human CAL-54 cell growth in a cell viability assay.

CAL-85-1 = assay type: functional, cell-based; details: Homo sapiens;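 further: growth inhibition of human CAL-85-1 cells, read out with a cell viability assay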
Description: SANGER: Inhibition of human CAL-85-1 cell growth in a cell viability assay.

U-698-M = assay type: functional, cell-based, Homo sapiens; details: Homo sapiens, U-698-M
Description: SANGER: Inhibition of human U-698-M cell growth in a cell viability assay.

UACC-893 = assay type: functional, cell-based; details: Homo sapiens
Description: SANGER: Inhibition of human UACC-893 cell growth in a cell viability assay.

UMC-11 = assay type: functional, cell-based; details: Homo sapiens
Description: SANGER: Inhibition of human UMC-11 cell growth in a cell viability assay.

YAPC = assay type: functional, cell-based; details: Homo sapiens
Description: SANGER: Inhibition of human YAPC cell growth in a cell viability assay.

COLO-680N = assay type: functional, cell-based; details: Homo sapiens
Description: SANGER: Inhibition of human COLO-680N cell growth in a cell viability assay.

Measured: IC50

O=S(=O)(O)c1ccc2cc(/N=N/c3cc(S(=O)(=O)O)c4cccnc4c3O)ccc2c1
15.9 µM: HCT-15
14.1 µM: AN3-CA
> 16 µM: all other assays above
